Converted amounts (≈) assume the structure as drawn. “Also recorded” adds a separate entry of the source. Numbered stars: 1 amine (or outer) side, 2 acyl side, 3 side chain; on linkers, the order of the positions; unused ones are H or OH. Square brackets hold non-standard residues; d marks the D form. Peptide text beside a SMILES is read from it. dAla(ψthiazole) = C[C@@H](N[*:1])c1nc(C(=O)[*:2])cs1; Trp(4-OMe) = COc1cccc2[nH]cc(C[C@H](N)C(=O)O)c12; Dha = C=C(N)C(=O)O; Sar = CNCC(=O)O
Columns and labels:
p27^kip1 = p27^kip1 half life in cycloheximide treated cells; type: cell-based, human; conditions: HeLa and SW480 cells, cycloheximide 25 μg/mL
Procedure: The inventors therefore conclude that Argyrin A prevents the degradation of p27 due to its proteasome inhibitory activity in vivo and induces apoptosis or G1 arrest in a variety of different tumour cell lines.
(§1) The expression levels of p27^kip1 were determined at the indicated timepoints by western blotting and normalized against actin expression which was used as an internal control.

[1] = Body weight and tolerability of treated tumour bearing mice; type: in vivo
20S proteasome = 20S proteasome activity in peripheral blood cells after i.p. injection; type: in vivo, mouse; conditions: peripheral blood lymphocytes
Procedure: The inventors therefore tested if Argyrin A induced p27^kip1 stabilization would be beneficial in the treatment of human colon cancer cell derived tumour xenografts. To analyze this the inventors first tested if Argyrin A was active after application in vivo. After intraperitoneal injection of Argyrin A, 20S proteasome was isolated from peripheral blood lymphocytes at different time points after injection. […] Based on this finding the inventors treated tumour bearing mice with 0.15 mg Argyrin per kilogram bodyweight injected intraperitoneally every three days.
At the indicated timepoints 20S proteasome was isolated from peripheral blood cells and the activity of the different proteasome subunits was determined as described (FIG. 1d). b) SW480 colon carcinoma cell lines mixed with matrigel were injected under the skin of nu/nu mice to establish xenotransplant tumours. Treatment with Argyrin A or bortezomib was started when these tumours reached a volume of 200 mm^3. […] The activity of the respective proteasome subunits was determined as described previously (FIG. 1d). e) Determination of the number of p27^kip1 positive cells in tumour tissue after Argyrin A treatment. […] At least 200 cells were counted on five independent sections to quantitate the number of apoptotic cells. […]
Proteasome assays using proteasome purified from cells or tissues were carried out in a 100 μL reaction volume containing 20 μg proteasome extract, 50 mmol/L EDTA and 60 μmol/L fluorogenic substrate (chymotrypsin-like (CT-L), trypsin-like (T-L) or caspase-like (C-L)) in ATP/DTT lysis buffer at 37° C. […] The rate of cleavage of fluorogenic peptide substrates was determined by monitoring the fluorescence of released amonomethylcoumarin using a Victor 1420 Multilabel counter (Wallac) at an excitation wavelength of 395 nm and emission wavelength of 460 nm over a period of 60 min.

[2] = system: HCT116 colon carcinoma cells; assay: Flow cytometry cell cycle / sub-G1 analysis; type: cell-based, human; conditions: at ranges of IC50
Procedure: as §1
(§2) MTT assays were done as previously described (Sasse, F. et al. Argyrins, immunosuppressive cyclic peptides from myxobacteria. I. Production, isolation, physico-chemical and biological properties. J Antibiot (Tokyo) 55, 543-51 (2002)). TUNEL staining of tissue sections was performed on 10 micrometer sections which were deparafinised and treated as recommended by the manufacturer. (In Situ Cell Death Detection Kit, Fluorescein; ROCHE, Cat #11 684 795 910). Flow cytometric analysis of cultured cells was done using a Becton Dickinson fluorescence cytometer as previously described (Malek, N. P. et al. A mouse knock-in model exposes sequential proteolytic pathways that regulate p27^Kip1 in G1 and S phase. Nature 413, 323-7 (2001)). Analysis of the distribution of cells in the cell cycle and the sub-G1 fraction was done using Cell Quest software. A histone-associated-DNA-fragments ELISA was used to determine the number of apoptotic cells according to manufacturers instructions (Roche #11 774425001).

HeLa (cervix carcinoma) = assay: Flow cytometry cell cycle / sub-G1 analysis; type: cell-based, human; conditions: at ranges of IC50; sub G1 phase fraction
Procedure: as §1, §2

[3] = system: SW480 colon carcinoma cell line; assay: Flow cytometry cell cycle / sub-G1 analysis; type: cell-based, human; conditions: at ranges of IC50; sub G1 phase fraction
Procedure: as §1, §2

[4] = system: CaCo colon carcinoma cell line; assay: Flow cytometry cell cycle / sub-G1 analysis; type: cell-based, human; conditions: at ranges of IC50; sub G1 phase fraction
Procedure: as §1, §2

MCF7 (breast cancer) = assay: Flow cytometry cell cycle / sub-G1 analysis; type: cell-based, human; conditions: at ranges of IC50; sub G1 phase fraction
Procedure: as §1, §2

A549 (lung cancer) = assay: Flow cytometry cell cycle / sub-G1 analysis; type: cell-based, human; conditions: at ranges of IC50
Procedure: as §1, §2

SW-480 (colon cancer) = assay: MIC (visual), serial dilution, SW-480; type: cell-based, human; conditions: minimal concentration of a serial dilution exhibiting a visual effect
Description: (§3) The following table summarizes the effects of argyrin-derivatives A to H on two cancer cell lines, H15 (cervix carcinoma) and SW-480 (colon cancer). In order to test the efficacy, a p27-GFP-clone was used.

H15 (cervix carcinoma) = assay: MIC (visual), serial dilution, H15; type: cell-based, human; conditions: minimal concentration of a serial dilution exhibiting a visual effect
Description: as §3

[5] = system: HCT116 colon carcinoma xenotransplant tumours; assay: HCT116 xenotransplant tumours in nu/nu mice; type: in vivo, mouse; conditions: HCT116 derived tumor-xenografts
Procedure: Treatment with Argyrin A or bortezomib was started when these tumours reached a volume of 200 mm3. […] (n=8 Argyrin A, n=8 Bortezomib, n=6 PBS/EtOH) b) The pictures show the macroscopic appearance of a xenotransplant tumour after 10 days of treatment with Argyrin A. Note the large necrotic centre of the explanted tumour. c) After a single injection of Argyrin A (0.15 mg/kg bodyweight) or bortezomib (1.0 mg/kg bodyweight) tumours were explanted at the indicated time points and blood vessels in the tumour tissue were co-stained for CD31 and p27. […] Note the swelling of the endothelial cell (“E”) and the occlusion of the lumen (“L”) by erythrocytes after 90 minutes of Argyrin A treatment. The arrow marks the detachment of endothelial cells after 48 h of Argyrin A treatment. […] Tube length (f) and blood vessel like […] structures were determined using photographs of HUVEC cultures. The micrographs show representative examples of HUVEC cultures under the indicated conditions.
1×10^7 SW480 cells or HCT116 cells (in 100 microliters DMEM medium and 100 microliters matrigel) were s.c. injected into the flanks of NMRI nu/nu mice. Tumours grew for approx. 18 days until they reached appropriate size (200 mm3). Tumour size was measured with a digital calliper and calculated with the help of the following formula: (Length×width2)*π/6. […]

Question: Which p27 turnover (p27^kip1) does the source give for `C=C1NC(=O)[C@@H](C)NC(=O)CNC(=O)[C@H](Cc2c[nH]c3cccc(OC)c23)NC(=O)[C@H](Cc2c[nH]c3ccccc23)NC(=O)c2csc(n2)[C@@H](C)NC(=O)CN(C)C1=O` [Argyrin A] (cyclo(W[Trp(4-OMe)]G[dA][Dha][Sar][dAla(ψthiazole)])) here?
Answer: complete block

Question: And the “discomfort, weight loss, disease / tolerability” value [1]?
Answer: very well tolerated; also recorded: did not observe any signs of discomfort, weight loss

Question: And the “time at which all activities returned to base-line levels post injection” value (20S proteasome; i.p.)?
Answer: 72 h

Question: And the “time of maximum inhibitory activity post injection” value (20S proteasome; i.p.)?
Answer: 48 h

Question: What about the “proteasome activities after i.p. application” value (20S proteasome; mice) of the same molecule?
Answer: inhibited all proteasome activities

Question: What about the cellular phenotype [2] of the same molecule?
Answer: stopped to proliferate

Question: What about the cellular phenotype (HeLa (cervix carcinoma)) of the same molecule?
Answer: underwent apoptosis

Question: What about the cellular phenotype [3] of the same molecule?
Answer: underwent apoptosis

Question: What about the cellular phenotype [4] of the same molecule?
Answer: underwent apoptosis

Question: And the cellular phenotype (MCF7 (breast cancer))?
Answer: underwent apoptosis

Question: What about the cellular phenotype (A549 (lung cancer)) of the same molecule?
Answer: stopped to proliferate

Question: And the “MIC (visual) SW-480” value (SW-480 (colon cancer))?
Answer: 4 µg/mL (≈ 4.85 µM)

Question: And the “MIC (visual) H15” value (H15 (cervix carcinoma))?
Answer: 4 µg/mL (≈ 4.85 µM)

Question: What about the tumour volume [5] of the same molecule?
Answer: significant reduction
